# Reference: the supplement of paper PMC10307832
# How the values were obtained:
# Experiment in all cases: relative viability (nuclei count vs DMSO), 5 days (fraction); higher = more cells survive
# 201T = test system: 201T
# Summary of the method: (§1)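 Lung cancer cell lines in 1536-well plates were dosed by pin tool the day after seeding, either with one drug alone or with a fixed anchor-drug dose plus five library-drug doses (not always all listed) in √10 steps. After 5 days, cells were fixed and their nuclei stained in one step (final 0.05% Triton X-100, 1% formaldehyde, 1 ug/ml Hoechst), then counted on 4× images. Relative viability is the nuclei count in treated wells divided by that in vehicle wells. Values are medians of duplicate plates.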
# EPLC-272H = test system: EPLC-272H
# Summary of the method: as §1
# H3255 = test system: H3255
# Summary of the method: as §1
# LCLC-103H = test system: LCLC-103H
# Summary of the method: as §1
# LOU-NH91 = test system: LOU-NH91
# Summary of the method: as §1
# NCI-H1355 = test system: NCI-H1355
# Summary of the method: as §1
# NCI-H1651 = test system: NCI-H1651
# Summary of the method: as §1
# NCI-H1666 = test system: NCI-H1666
# Summary of the method: as §1
# NCI-H1734 = test system: NCI-H1734
# Summary of the method: as §1
# NCI-H1792 = test system: NCI-H1792
# Summary of the method: as §1
# NCI-H1793 = test system: NCI-H1793
# Summary of the method: as §1
# NCI-H1915 = test system: NCI-H1915
# Summary of the method: as §1
# NCI-H1944 = test system: NCI-H1944
# Summary of the method: as §1
# NCI-H1975 = test system: NCI-H1975
# Summary of the method: as §1
# NCI-H2023 = test system: NCI-H2023
# Summary of the method: as §1
# NCI-H2342 = test system: NCI-H2342
# Summary of the method: as §1
# NCI-H2405 = test system: NCI-H2405
# Summary of the method: as §1
# NCI-H441 = test system: NCI-H441
# Summary of the method: as §1
# NCI-H647 = test system: NCI-H647
# Summary of the method: as §1
# RERF-LC-KJ = test system: RERF-LC-KJ
# Summary of the method: as §1
# SK-LU-1 = test system: SK-LU-1
# Summary of the method: as §1
# UMC-11 = test system: UMC-11
# Summary of the method: as §1
smiles,measurement,setting,value
COCC1(CO)C(=O)C2CCN1CC2 (centres undefined) [PRIMA-1MET] + CCNC(=O)c1noc(-c2cc(C(C)C)c(O)cc2O)c1-c1ccc(CN2CCOCC2)cc1 [Luminespib] (partner 0.01 µM),relative viability,201T; first compound 0.2 µM,1.17
same,relative viability,201T; first compound 0.6325 µM,0.937
same,relative viability,201T; first compound 2 µM,0.926
same,relative viability,201T; first compound 6.325 µM,1.05
same,relative viability,201T; first compound 20 µM,1.06
same,relative viability,EPLC-272H; first compound 2 µM,0.277
same,relative viability,EPLC-272H; first compound 6.325 µM,0.237
same,relative viability,EPLC-272H; first compound 20 µM,0.146
same,relative viability,H3255; first compound 0.2 µM,0.933
same,relative viability,H3255; first compound 0.6325 µM,0.813
same,relative viability,H3255; first compound 2 µM,0.741
same,relative viability,H3255; first compound 6.325 µM,0.868
same,relative viability,H3255; first compound 20 µM,0.91
same,relative viability,LCLC-103H; first compound 0.2 µM,1.05
same,relative viability,LCLC-103H; first compound 0.6325 µM,0.831
same,relative viability,LCLC-103H; first compound 2 µM,0.892
same,relative viability,LCLC-103H; first compound 6.325 µM,0.985
same,relative viability,LCLC-103H; first compound 20 µM,0.307
same,relative viability,LOU-NH91; first compound 0.2 µM,0.347
same,relative viability,LOU-NH91; first compound 0.6325 µM,0.353
same,relative viability,LOU-NH91; first compound 2 µM,0.365
same,relative viability,LOU-NH91; first compound 6.325 µM,0.42
same,relative viability,LOU-NH91; first compound 20 µM,0.265
same,relative viability,NCI-H1355; first compound 0.2 µM,0.859
same,relative viability,NCI-H1355; first compound 0.6325 µM,0.556
same,relative viability,NCI-H1355; first compound 2 µM,0.695
same,relative viability,NCI-H1355; first compound 6.325 µM,0.734
same,relative viability,NCI-H1355; first compound 20 µM,0.673
same,relative viability,NCI-H1651; first compound 0.2 µM,0.99
same,relative viability,NCI-H1651; first compound 0.6325 µM,0.704
same,relative viability,NCI-H1651; first compound 2 µM,0.66
same,relative viability,NCI-H1651; first compound 6.325 µM,1.06
same,relative viability,NCI-H1651; first compound 20 µM,0.824
same,relative viability,NCI-H1666; first compound 0.2 µM,1.02
same,relative viability,NCI-H1666; first compound 0.6325 µM,0.714
same,relative viability,NCI-H1666; first compound 2 µM,0.906
same,relative viability,NCI-H1666; first compound 6.325 µM,1.03
same,relative viability,NCI-H1666; first compound 20 µM,0.85
same,relative viability,NCI-H1734; first compound 0.2 µM,0.214
same,relative viability,NCI-H1734; first compound 0.6325 µM,0.18
same,relative viability,NCI-H1734; first compound 2 µM,0.192
same,relative viability,NCI-H1734; first compound 6.325 µM,0.172
same,relative viability,NCI-H1734; first compound 20 µM,0.0435
same,relative viability,NCI-H1792; first compound 0.2 µM,0.533
same,relative viability,NCI-H1792; first compound 0.6325 µM,0.491
same,relative viability,NCI-H1792; first compound 2 µM,0.394
same,relative viability,NCI-H1792; first compound 6.325 µM,0.466
same,relative viability,NCI-H1792; first compound 20 µM,0.45
same,relative viability,NCI-H1793; first compound 0.2 µM,0.138
same,relative viability,NCI-H1793; first compound 0.6325 µM,0.177
same,relative viability,NCI-H1793; first compound 6.325 µM,0.195
same,relative viability,NCI-H1793; first compound 20 µM,0.159
same,relative viability,NCI-H1915; first compound 0.2 µM,0.868
same,relative viability,NCI-H1915; first compound 0.6325 µM,0.506
same,relative viability,NCI-H1915; first compound 6.325 µM,0.853
same,relative viability,NCI-H1915; first compound 20 µM,0.697
same,relative viability,NCI-H1944; first compound 0.2 µM,0.671
same,relative viability,NCI-H1944; first compound 0.6325 µM,0.612
same,relative viability,NCI-H1944; first compound 2 µM,0.61
same,relative viability,NCI-H1944; first compound 6.325 µM,0.685
same,relative viability,NCI-H1944; first compound 20 µM,0.724
same,relative viability,NCI-H1975; first compound 0.2 µM,0.33
same,relative viability,NCI-H1975; first compound 0.6325 µM,0.171
same,relative viability,NCI-H1975; first compound 2 µM,0.21
same,relative viability,NCI-H1975; first compound 6.325 µM,0.252
same,relative viability,NCI-H1975; first compound 20 µM,0.154
same,relative viability,NCI-H2023; first compound 0.2 µM,0.957
same,relative viability,NCI-H2023; first compound 0.6325 µM,0.85
same,relative viability,NCI-H2023; first compound 2 µM,0.745
same,relative viability,NCI-H2023; first compound 6.325 µM,0.685
same,relative viability,NCI-H2023; first compound 20 µM,0.642
same,relative viability,NCI-H2342; first compound 0.2 µM,0.722
same,relative viability,NCI-H2342; first compound 0.6325 µM,0.696
same,relative viability,NCI-H2342; first compound 2 µM,0.57
same,relative viability,NCI-H2342; first compound 6.325 µM,0.675
same,relative viability,NCI-H2342; first compound 20 µM,0.602
same,relative viability,NCI-H2405; first compound 0.2 µM,0.65
same,relative viability,NCI-H2405; first compound 0.6325 µM,0.598
same,relative viability,NCI-H2405; first compound 6.325 µM,0.688
same,relative viability,NCI-H2405; first compound 20 µM,0.249
same,relative viability,NCI-H441; first compound 0.2 µM,0.437
same,relative viability,NCI-H441; first compound 0.6325 µM,0.334
same,relative viability,NCI-H441; first compound 2 µM,0.276
same,relative viability,NCI-H441; first compound 6.325 µM,0.365
same,relative viability,NCI-H441; first compound 20 µM,0.277
same,relative viability,NCI-H647; first compound 0.2 µM,0.181
same,relative viability,NCI-H647; first compound 0.6325 µM,0.224
same,relative viability,NCI-H647; first compound 6.325 µM,0.219
same,relative viability,NCI-H647; first compound 20 µM,0.0932
same,relative viability,RERF-LC-KJ; first compound 0.2 µM,1.42
same,relative viability,RERF-LC-KJ; first compound 0.6325 µM,1.29
same,relative viability,RERF-LC-KJ; first compound 2 µM,1.36
same,relative viability,RERF-LC-KJ; first compound 6.325 µM,1.37
same,relative viability,RERF-LC-KJ; first compound 20 µM,1.03
same,relative viability,SK-LU-1; first compound 0.2 µM,0.203
same,relative viability,SK-LU-1; first compound 0.6325 µM,0.199
same,relative viability,SK-LU-1; first compound 2 µM,0.199
same,relative viability,SK-LU-1; first compound 6.325 µM,0.212
same,relative viability,SK-LU-1; first compound 20 µM,0.137
same,relative viability,UMC-11; first compound 0.2 µM,1.06
same,relative viability,UMC-11; first compound 0.6325 µM,0.818
same,relative viability,UMC-11; first compound 2 µM,0.978
same,relative viability,UMC-11; first compound 6.325 µM,0.988
same,relative viability,UMC-11; first compound 20 µM,0.917
